We go through one molecule from article PMC10113271, “Rational peptide design for inhibition of the KIX–MLL interaction” (Scientific Reports, 2023).

Data set [1] addresses T1, KIX (Mus musculus, UniProt P45481).
T1 construct: The DNA fragment of KIX (residues 586–672 of mouse CBP); 6xHis-tag with thrombin cleavage site (N); made in house; host or cells: E. coli BL21(DE3)pLysS
Briefly: KIX binding by isothermal titration calorimetry (ITC). The following applies: 30 °C. As to the method: For the expression of MLL TAD, E. coli BL21(DE3) competent cells were transformed with the plasmid and cultivated at 37 °C in 2 × YT liquid medium supplemented with ampicillin. When an optical density at 600 nm (OD600) of the cell culture reached 0.7–0.8, 1 mM isopropyl β-D-1-thiogalactopyranoside was added to induce protein expression. After 4 h of cultivation, the cells were harvested by centrifugation. The E. coli cell pellet was suspended with buffer HP (50 mM sodium phosphate [pH 7.4], 300 mM NaCl, 10 mM imidazole, and 6 M guanidine hydrochloride). The sonicated lysate was centrifuged at 4 °C, and the supernatant was filtered using a membrane filter and applied to a gravity column (50 mL) containing 5 mL of nickel-nitrilotriacetic acid (Ni–NTA) resin (Qiagen, Hilden, Germany). The column was washed with buffer HP and buffer AP (50 mM sodium phosphate [pH 7.4], 300 mM NaCl, and 10 mM imidazole) to remove impurities. To elute His-tag–GB1–MLL TAD for ITC and SPR measurements, 40 mL of buffer EP (50 mM sodium phosphate [pH 7.4], 300 mM NaCl, and 250 mM imidazole) was added to the column. […] Thus, His-tag–GB1–MLL TAD was used in the ITC measurements, with the exception of the four mutants (I2849L, D2851L, K2855R, and T2857I). To obtain the MLL TAD peptide without His-tag–GB1 for CD measurements, we washed the column, to which the His-tag–GB1–MLL TAD was attached, with buffer TP (50 mM sodium phosphate [pH 7.4] and 300 mM NaCl), added 150 units of thrombin to the column for digestion of the His-tag–GB1, and eluted the MLL TAD peptide with buffer TP. After Ni–NTA column purification, anion exchange chromatography was performed to further purify the aforementioned four mutants without His-tag–GB1 using the AKTAprime plus chromatography system (Cytiva, Marlborough, MA, USA; 10 mM sodium phosphate [pH 6.0] and 0–1 M NaCl). Due to the fact that the CD spectra of the four mutants were unchanged before and after the anion exchange chromatography, we omitted this procedure for other mutants.
Expression and purification of the KIX protein was performed in the same way as MLL, except that E. coli BL21(DE3)pLysS competent cells and 2 × YT liquid medium with ampicillin and chloramphenicol were used. After Ni–NTA column purification, gel filtration chromatography was performed using a Superdex 200 pg column (Cytiva) and the ITC buffer (20 mM Tris–acetate [pH 7.0] and 50 mM NaCl).
ITC measurements were performed using MicroCal iTC200 (Malvern Panalytical Ltd., Malvern, United Kingdom) at 30 °C. Samples were sufficiently dialyzed with the ITC buffer before measurements. The 600 μM MLL solution was titrated into the cell containing 45 µM KIX. The data were analyzed using the Origin 7 software (OriginLab Corp., Northampton, MA, USA; https://www.originlab.com) to obtain the Kd (M), ΔH (kcal/mol), and stoichiometry of binding, N. The ΔG (kcal/mol) and ΔS (kcal/mol/K) were obtained as follows:2 ΔG=-RTln1/Kd 3 ΔS=ΔH-ΔG/T where R is the gas constant, and T is the temperature.
(In general: ITC needs no label: the signal is the heat of the interaction.)

A short description of data set [2]: Helix contents estimated from far-UV CD spectra. It counts as physicochemical. The conditions noted are these: 30 μM peptide without His-tag–GB1, 30 °C, pH 7.0, CONTINLL with SDP48 reference set. As to the method: CD spectra were measured using a J-805 spectropolarimeter (JASCO, Tokyo, Japan) from 200 to 250 nm in a quartz cuvette with a 1-mm path length at 30 °C. Protein concentrations were 30 μM. The CD intensity was converted to MRE using the following equation:1 MRE(deg cm^2dmol^-1)=CD(mdeg)/N·c(M)·l(mm) where N is the number of residues, c is the protein concentration, and l is the path length.
The helix contents of the MLL TAD peptide were calculated from the far-UV CD spectra using the CONTINLL program[42] with the reference data set containing soluble and denatured proteins (SDP48) in the CDPro package.

Data set [3] has as its target KIX. The conditions noted are these: previously reported value for binding between KIX and MLL TAD; cited from earlier work. The source says: Previous studies have reported several inhibitors that bind the MLL site of KIX, including isoxazolidine derivatives, which are small molecule compounds that mimic the function of the TADs of transcriptional activators, and natural products such as sekikaic acid and lobaric acid[21],[22].

The structures appear in SMILES notation.

T1 sequence (P45481 586-672): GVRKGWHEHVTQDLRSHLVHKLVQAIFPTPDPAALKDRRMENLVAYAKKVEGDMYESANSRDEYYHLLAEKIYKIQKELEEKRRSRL

With `CC[C@H](C)[C@H](NC(=O)[C@H](CC(=O)O)NC(=O)[C@H](CO)NC(=O)[C@@H]1CCCN1C(=O)[C@H](CC(C)C)NC(=O)[C@@H](NC(=O)[C@H](CC(N)=O)NC(=O)CN)[C@@H](C)CC)C(=O)N[C@@H](CCSC)C(=O)N[C@@H](CC(=O)O)C(=O)N[C@@H](Cc1ccccc1)C(=O)N[C@H](C(=O)N[C@@H](CC(C)C)C(=O)N[C@@H](CCCCN)C(=O)N[C@@H](CC(N)=O)C(=O)N[C@H](C(=O)N1CCC[C@H]1C(=O)N[C@@H](CO)C(=O)N[C@@H](CCSC)C(=O)N[C@@H](CCC(N)=O)C(=O)N[C@@H](C)C(=O)N[C@@H](CC(C)C)C(=O)NCC(=O)N[C@@H](CCC(=O)O)C(=O)N[C@@H](CO)C(=O)N1CCC[C@H]1C(=O)N[C@@H](CCC(=O)O)C(=O)N[C@@H](CO)C(=O)N[C@@H](Cc1ccc(O)cc1)C(=O)O)[C@@H](C)O)C(C)C` [wild type, reference compound], the “N (stoichiometry of binding)” value at KIX [1] (pH 7.0, mean ± standard error of triplicate or more) was 1.02 ± 0.01. Moreover, at KIX [1] (entropy term upon KIX binding, pH 7.0, ΔS=(ΔH-ΔG)/T, mean ± standard error of triplicate or more), the “− TΔS” value was 5.2 ± 0.1 kcal/mol. Besides, the helix contents in data set [2] is ~ 5.7%. At KIX [3], the dissociation constant (Kd) (usually a measure of binding affinity in units of concentration) is 2100 nM.
